Results published in US6706705B1, “Quinazoline derivatives” (Nippon Chemiphar Co., Ltd., priority 1994, dated 2004).

Legend:
Format in all cases: in vivo, rat
[1] = tested on: male spontaneously hypertensive rats (SHR); assay: Pharmacological Test-1: blood pressure after oral administration in spontaneously hypertensive rats; settings: for Blood Pressure (mmHg) 1 hr. / Blood Pressure (mmHg) 3 hrs. / Blood Pressure (mmHg) 6 hrs. / Blood Pressure (mmHg) 9 hrs. / Blood Pressure (mmHg) 12 hrs.: oral; for Blood Pressure (mmHg) 1 hr.: variation of blood pressure 1 hr. after administration; for Blood Pressure (mmHg) 3 hrs.: variation of blood pressure 3 hrs. after administration; for Blood Pressure (mmHg) 6 hrs.: variation of blood pressure 6 hrs. after administration; for lapse of time until approximately maximum blood pressure depression / blood pressure depression, result in words: summary of Table 1; for Blood Pressure (mmHg) 9 hrs.: variation of blood pressure 9 hrs. after administration; for Blood Pressure (mmHg) 12 hrs.: variation of blood pressure 12 hrs. after administration
Procedure: (§1) This test was performed using male spontaneously hypertensive rats (SHR, 15 weeks old or older, 300 to 400 g). Under halothane anesthesia, the left femoral arteries of the rats were cannulated using a polyethylene cannula. The cannula was connected to a device for blood pressure measurement. Then, the rats were placed in the Bollman-type cages. After one hour, it was confirmed that the blood pressure was kept constant. When the rats waked, they were orally administered with the test compound, and variation of blood pressure after the administration was measured as time passed. The test compound was suspended or dissolved in 1% aqueous methylcellulose solution and administered in an amount of 0.2 mL per 100 g of body weight.

[2] = tested on: male DOCA salt hypertensive rats (DOCAR); assay: Pharmacological Test-2: blood pressure after oral administration in DOCA salt hypertensive rats; settings: for Blood Pressure (mmHg) 1 hr. / Blood Pressure (mmHg) 3 hrs. / Blood Pressure (mmHg) 6 hrs. / Blood Pressure (mmHg) 9 hrs. / Blood Pressure (mmHg) 12 hrs.: DOCA salt hypertensive rats, oral, 3 mg/kg; for Blood Pressure (mmHg) 1 hr.: 1 hr. after administration; for Blood Pressure (mmHg) 3 hrs.: 3 hrs. after administration; for Blood Pressure (mmHg) 6 hrs.: 6 hrs. after administration; for Blood Pressure (mmHg) 9 hrs.: 9 hrs. after administration; for Blood Pressure (mmHg) 12 hrs.: 12 hrs. after administration; for lapse of time until approximately maximum blood pressure depression: summary of 'Tables 1 and 2' as printed after Table 3
Procedure: as §1
(§2) This test was performed by measuring the blood pressure in the same manner as in the above pharmacological test-1 using male DOCA salt hypertensive rats (DOCAR, 15 weeks old or older, 300 to 400 g, not-fasted). The test results are set forth in Table 2.The compound of the invention examined in this test was the same as that employed in the pharmacological test-1.

[3] = tested on: normal male rats of Wister strain; assay: Pharmacological Test-4: blood pressure after oral administration in normal rats; settings: for Blood Pressure (mmHg) 1 hr. / Blood Pressure (mmHg) 3 hrs. / Blood Pressure (mmHg) 6 hrs. / Blood Pressure (mmHg) 9 hrs. / Blood Pressure (mmHg) 12 hrs.: oral; for Blood Pressure (mmHg) 1 hr.: 1 hr. after administration; for Blood Pressure (mmHg) 3 hrs.: 3 hrs. after administration; for Blood Pressure (mmHg) 6 hrs.: 6 hrs. after administration; for Blood Pressure (mmHg) 9 hrs.: 9 hrs. after administration; for Blood Pressure (mmHg) 12 hrs.: 12 hrs. after administration; for effect on normal blood pressure, result in words: summary of Table 4
Procedure: as §1
as §2, with “using normal” for “using”, “male” for “male DOCA salt hypertensive”, “of Wister strain (15” for “(DOCAR, 15”, “4.The” for “2.The”

[4] = tested on: male Dahl salt sensitive male rats (DahlSR); assay: Pharmacological Test-3: blood pressure after oral administration in Dahl salt sensitive rats; settings: 3 mg/kg; for Blood Pressure (mmHg) 1 hr.: 1 hr. after administration; for Blood Pressure (mmHg) 3 hrs.: 3 hrs. after administration; for Blood Pressure (mmHg) 6 hrs.: 6 hrs. after administration; for Blood Pressure (mmHg) 9 hrs.: 9 hrs. after administration; for Blood Pressure (mmHg) 12 hrs.: 12 hrs. after administration
Procedure: as §1
This test was performed in the same manner as in the above pharmacological test-1 using male Dahl salt sensitive male rats (DahlSR, 15 weeks old or older, 300 to 400 g, not-fasted). The compound of the invention examined in this test was the same as that employed in the pharmacological test-1.

Structure (SMILES) | Blood Pressure (mmHg) 1 hr. ([1]; 1 mg/kg) | Blood Pressure (mmHg) 3 hrs. ([1]; 1 mg/kg) | Blood Pressure (mmHg) 6 hrs. ([1]; 1 mg/kg) | Blood Pressure (mmHg) 1 hr. ([1]; 3 mg/kg) | Blood Pressure (mmHg) 3 hrs. ([1]; 3 mg/kg) | Blood Pressure (mmHg) 6 hrs. ([1]; 3 mg/kg) | lapse of time until approximately maximum blood pressure depression [1] | blood pressure depression, result in words [1] | Blood Pressure (mmHg) 1 hr. [2] | Blood Pressure (mmHg) 3 hrs. [2] | Blood Pressure (mmHg) 6 hrs. [2] | Blood Pressure (mmHg) 9 hrs. [2] | Blood Pressure (mmHg) 12 hrs. [2] | lapse of time until approximately maximum blood pressure depression [2] | Blood Pressure (mmHg) 1 hr. ([3]; 3 mg/kg) | Blood Pressure (mmHg) 3 hrs. ([3]; 3 mg/kg) | Blood Pressure (mmHg) 6 hrs. ([3]; 3 mg/kg) | Blood Pressure (mmHg) 9 hrs. ([3]; 3 mg/kg) | Blood Pressure (mmHg) 12 hrs. ([3]; 3 mg/kg) | effect on normal blood pressure, result in words [3] | other results
COc1cc2nc(N3CCN(C(=O)c4ccccc4)CC3)nc(N)c2cc1OC.Cl [Comp. [C], 4-amino-2-(4-benzoyl-1-piperazinyl)-6,7-dimethoxyquinazoline hydrochloride] | −36 mmHg | −31 mmHg | −39 mmHg | −64 mmHg | −64 mmHg | −61 mmHg | one hour |  |  |  |  |  |  |  |  |  |  |  |  |  | 
COc1cc2nc(N3CCN(C(=O)c4ccc(O)cc4)CC3)nc(N)c2cc1OC.Cl [Comp. [D], 4-amino-2-[4-(4-hydroxybenzoyl)-1-piperazinyl]-6,7-dimethoxyquinazoline hydrochloride] | 2 mmHg | −3 mmHg | −6 mmHg | −5 mmHg | −6 mmHg | −8 mmHg |  | very little blood pressure depression |  |  |  |  |  |  |  |  |  |  |  |  | 
COc1cc2nc(N3CCN(C(=O)c4ccco4)CC3)nc(N)c2cc1OC.Cl [Prazo., prazosin hydrochloride] | −35 mmHg | −41 mmHg | −42 mmHg | −57 mmHg | −69 mmHg | −65 mmHg | one hour |  | −81 mmHg | −62 mmHg | −69 mmHg | −50 mmHg | −36 mmHg | one to two hours | −44 mmHg | −40 mmHg | −33 mmHg | −33 mmHg | −43 mmHg | largely decrease normal blood pressure | Blood Pressure (mmHg) 1 hr. ([3]; 1 mg/kg): −27 mmHg; Blood Pressure (mmHg) 3 hrs. ([3]; 1 mg/kg): −21 mmHg; Blood Pressure (mmHg) 6 hrs. ([3]; 1 mg/kg): −23 mmHg; Blood Pressure (mmHg) 9 hrs. ([3]; 1 mg/kg): −23 mmHg; Blood Pressure (mmHg) 12 hrs. ([3]; 1 mg/kg): −24 mmHg; Blood Pressure (mmHg) 1 hr. [4]: −48 mmHg; Blood Pressure (mmHg) 3 hrs. [4]: −41 mmHg; Blood Pressure (mmHg) 6 hrs. [4]: −43 mmHg; Blood Pressure (mmHg) 9 hrs. [4]: −40 mmHg; Blood Pressure (mmHg) 12 hrs. [4]: −36 mmHg; Blood Pressure (mmHg) 9 hrs. ([1]; 1 mg/kg): −41 mmHg; Blood Pressure (mmHg) 12 hrs. ([1]; 1 mg/kg): −38 mmHg; Blood Pressure (mmHg) 9 hrs. ([1]; 3 mg/kg): −61 mmHg; Blood Pressure (mmHg) 12 hrs. ([1]; 3 mg/kg): −60 mmHg
COc1cc2nc(N3CCN(C(=O)C4COc5ccccc5O4)CC3)nc(N)c2cc1OC (stereo not drawn) [Doxa., doxazosin mesilate] | −19 mmHg | −21 mmHg | −19 mmHg | −35 mmHg | −32 mmHg | −29 mmHg |  |  |  |  |  |  |  |  | −24 mmHg | −19 mmHg | −20 mmHg | −22 mmHg | −23 mmHg | largely decrease normal blood pressure | Blood Pressure (mmHg) 1 hr. ([1]; 10 mg/kg): −37 mmHg; Blood Pressure (mmHg) 3 hrs. ([1]; 10 mg/kg): −50 mmHg; Blood Pressure (mmHg) 6 hrs. ([1]; 10 mg/kg): −35 mmHg
COc1cc2nc(N3CCN(C(=O)c4cc(C(C)(C)C)c(O)c(C(C)(C)C)c4)CC3)nc(N)c2cc1OC.Cl [Invention, 4-amino-2-[4-(3,5-di-t-butyl-4-hydroxybenzoyl)-1-piperazinyl]-6,7-dimethoxyquinazoline hydrochloride] | −4 mmHg | −25 mmHg | −41 mmHg | −29 mmHg | −60 mmHg | −75 mmHg | six hours | slowly decreases the blood pressure | −15 mmHg | −42 mmHg | −62 mmHg | −49 mmHg | −37 mmHg | six hours | −5 mmHg | −9 mmHg | −19 mmHg | −21 mmHg | −24 mmHg | affects the normal blood pressure only slightly | Blood Pressure (mmHg) 1 hr. ([3]; 1 mg/kg): −4 mmHg; Blood Pressure (mmHg) 3 hrs. ([3]; 1 mg/kg): −11 mmHg; Blood Pressure (mmHg) 6 hrs. ([3]; 1 mg/kg): −21 mmHg; Blood Pressure (mmHg) 9 hrs. ([3]; 1 mg/kg): −22 mmHg; Blood Pressure (mmHg) 12 hrs. ([3]; 1 mg/kg): −23 mmHg; Blood Pressure (mmHg) 1 hr. [4]: −11 mmHg; Blood Pressure (mmHg) 3 hrs. [4]: −25 mmHg; Blood Pressure (mmHg) 6 hrs. [4]: −49 mmHg; Blood Pressure (mmHg) 9 hrs. [4]: −50 mmHg; Blood Pressure (mmHg) 12 hrs. [4]: −52 mmHg; Blood Pressure (mmHg) 9 hrs. ([1]; 1 mg/kg): −44 mmHg; Blood Pressure (mmHg) 12 hrs. ([1]; 1 mg/kg): −39 mmHg; Blood Pressure (mmHg) 9 hrs. ([1]; 3 mg/kg): −64 mmHg; Blood Pressure (mmHg) 12 hrs. ([1]; 3 mg/kg): −60 mmHg
